Assay results as given in patent publication US11046690B2, “Pyridazinones and methods of use thereof” (Goldfinch Bio, Inc., priority 2018, dated 2021).

What was measured:
TRPC5 = target: T1, TRPC5 (Homo sapiens, UniProt Q9UL62); assay: TRPC5 activity assay (FLIPR calcium fluorescence, Riluzole stimulation); assay type: cell-based; settings: HEK-TREx hTRPC5 cells, 30 μM Riluzole stimulation; read-out: TRPC5 (IC50 class)
T1 construct: expressed in transfected cells
T1 sequence (Q9UL62 1-973): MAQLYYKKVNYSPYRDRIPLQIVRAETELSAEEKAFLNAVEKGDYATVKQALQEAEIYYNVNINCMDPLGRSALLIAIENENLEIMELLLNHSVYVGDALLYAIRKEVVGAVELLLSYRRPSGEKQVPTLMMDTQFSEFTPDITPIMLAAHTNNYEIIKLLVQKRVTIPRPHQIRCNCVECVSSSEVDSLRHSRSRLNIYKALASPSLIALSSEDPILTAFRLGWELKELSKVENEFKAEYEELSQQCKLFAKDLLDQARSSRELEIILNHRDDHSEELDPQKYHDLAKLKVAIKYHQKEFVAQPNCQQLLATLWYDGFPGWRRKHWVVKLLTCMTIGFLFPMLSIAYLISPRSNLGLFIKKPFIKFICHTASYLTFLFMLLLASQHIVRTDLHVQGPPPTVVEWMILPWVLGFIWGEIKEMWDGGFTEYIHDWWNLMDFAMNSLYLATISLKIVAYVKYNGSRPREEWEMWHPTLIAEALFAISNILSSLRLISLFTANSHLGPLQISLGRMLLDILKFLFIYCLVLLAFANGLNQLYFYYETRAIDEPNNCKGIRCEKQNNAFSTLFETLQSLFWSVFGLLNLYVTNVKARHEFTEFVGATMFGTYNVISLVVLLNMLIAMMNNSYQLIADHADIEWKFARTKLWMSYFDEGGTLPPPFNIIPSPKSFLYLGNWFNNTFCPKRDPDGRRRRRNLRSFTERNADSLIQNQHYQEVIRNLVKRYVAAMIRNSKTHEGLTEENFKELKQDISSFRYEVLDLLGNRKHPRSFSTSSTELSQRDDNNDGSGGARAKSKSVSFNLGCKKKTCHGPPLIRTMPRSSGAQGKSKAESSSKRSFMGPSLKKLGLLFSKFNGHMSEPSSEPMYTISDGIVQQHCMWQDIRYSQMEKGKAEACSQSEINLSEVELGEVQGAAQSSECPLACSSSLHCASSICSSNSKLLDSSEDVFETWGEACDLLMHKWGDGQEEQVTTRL
Procedure: ICLN-1633 cells (HEK-TREx hTRPC5) expressing TRPC5 were generated as follows. Commercially available HekTrex-293 cells were seeded at 0.7×10^6 cells/well in a 1×6-well plate 24 hrs prior to transfection using 2 mL cell growth media containing no antibiotics (1× DMEM/high glucose (Hyclone #SH30022.02); 10% fetal bovine serum (Sigma) 2 mM sodium pyruvate, 10 mM HEPES). […] On day 2, 2 μg of plasmid DNA plus 6 μl of Xtreme-GENE HP reagent in Optimem (200 μl total volume) was prepared and incubated for 15 min at room temperature. This plasmid solution was then gently overlayed dropwise onto each well and the plate was gently swirled to mix complex with the media for approximately 30 seconds. Transfected cells were incubated at 37° C. in a 10%/CO2 incubator for 24 hrs. The transfected cells were harvested and transferred into 2×150 mm dishes containing cell growth media with no antibiotics at 37° C.
The next day selection was initiated to generate a stable pool by adding cell growth media containing 150 μg/mL Hygromycin and 5 μg/mL Blasticidin and cells were allowed to grow. Media with the selection agent was changed every 1-2 days as needed to remove dead cells. After 7 days, the hygromycin concentration was reduced to 75 μg/mL and cells growth was allowed to continue.
Single clones were selected as follows. The stable pool was diluted to 10 cells/mL and seeded (100 μl/well) into 24×96 well plates (˜1 cell/well) and allowed to grow for 7 days in cell growth media. Fresh media (100 μl) was added and the cells allowed to grow for another 1-2 weeks and then stored frozen or used immediately.
10-point dose response curves were generated using the Echo-550 acoustic dispenser. Compound source plates were made by serially diluting compound stocks to create 10 mM, 1 mM, and 0.1 mM solutions in DMSO into Echo certified LDV plates. The Echo then serially spotted 100%/DMSO stock solutions into source dose response plates to generate a 4-fold dilution scheme. 100%0/DMSO was added to the spotted dose response plates to bring the final volume to 5 μl. 300 nl of the dose response stock plate was then spotted into pre-incubation and stimulation assay plates. 50 μl of pre-incubation buffer and 100 μl of stimulation buffer was then added to the plates resulting in a final assay test concentration range of 30 μM to 0.0001 μM with a final DMSO concentration of 0.3%.
Human ICLN-1633 cells expressing were plated onto 384 well, black PDL-coated microplates and maintained in TRPC5 growth media the day prior to use for experiments. TRPC5 expression was induced by the application of 1 μg/mL tetracycline at the time of plating. […] Cells are incubated at room temperature, protected from light, for 60-90 minutes. After the incubation period, the dye is removed and replaced with 10 μl of EBSS. Cell, pre-incubation and stimulation plates are loaded onto the FLIPR-II and the assay is initiated. The FLIPR measures a 10 second baseline and then adds 10 μl of 2X compounds (or controls). Changes in fluorescence are monitored for an additional 5 minutes. After the 5 minute pre-incubation, 20 μl of 2X Riluzole (with 1X compound or controls) is added to the cell plate. The final Riluzole stimulation concentration in the assay is 30 μM. After the Riluzole addition, changes in fluorescence are monitored for an additional 5 minutes.
Compound modulation of TRPC5 calcium response was determined as follows. After the Englerin A, fluorescence was monitored for a 5-minute period. The maximum relative fluorescence response (minus the control response of 1 μM of an internal control compound known to maximally block TRPC5 calcium response, the “REF INHIB” in the formula below) was captured and exported from the FLIPR.
Compound effect is calculated as % inhibition using the following formula:
[formula] wherein “RFU” is the relative fluorescent units.

[1] = test system: PAN induced glomerular kidney injury; assay: Puromycin aminonucleoside (PAN)-induced glomerular injury in rats; assay type: in vivo, Sprague-Dawley rats; settings: PAN-injured rats
Source text: The objective of this study is to evaluate the dose-dependent effects of compound 100 on PAN induced glomerular kidney injury as indexed by albuminuria. Eighty (80), male Sprague-Dawley rats weighing approximately 125-150 g and approximately 5-6 weeks of age were acquired from Charles River. They were fed a standard chow diet (Harlan 8640), housed under standard conditions, and allowed to acclimate for at least 5 days prior to study inception. On D-2, rats were placed into weight-matched treatment groups and were placed, individually housed, into metabolic cages for the balance of the study. A 24 hour baseline (Day 0) urine was collected followed by a baseline blood collection via conscious tail venous puncture. Rats were then administered vehicle or test article. Two (2) hours following administration of vehicle or test agent on Day 0, rats received an administration of (5 ml/kg, s.c.) vehicle (sterile saline) or puromycin aminonucleoside (PAN; challenge agent; 75 mg/kg) dissolved in vehicle. Intermittent (Day 4, 7 and 10) 24 hour urine volumes were determined and samples (4 samples/animal/time point; 0.5 ml/sample) were obtained. Additionally, intermittent (Day 4, 7 and 10) blood samples were collected via conscious tail venous puncture 2 hours±1 minute post-AM dose. Immediately following the last blood collection, rats were anesthetized with isoflurane, tissues harvested, and animals sacrificed. Endpoint kidney weights and indices were obtained. Urine samples were immediately flash-frozen in liquid N2 and stored at −80° C. until analyzed. Whole blood samples collected on K3EDTA were processed appropriately for the production of plasma for PK measurements.

[2] = test system: AT1R transgenic rat model of FSGS; assay: AT1R transgenic rat model of FSGS; assay type: in vivo; settings: AT1R transgenic rats, UniNX and AngII infusion, orally once daily 3 mg/kg or 10 mg/kg, up to 3 weeks
Procedure: The AT1R transgenic rat model of FSGS is characterized by podocyte-specific expression of human AT1R. […] See Zhou et al., Science (2017), vol. 358 (6368), 1332-1336. In the present study, pathophysiology in AT1R transgenic rats was accelerated with unilateral nephrectomy (UniNX) and minipump AngII infusion. Compound 100 was dosed orally once daily at 3 mg/kg or 10 mg/kg, and the urine protein creatinine ratio was determined at -1, 0, 1, 2, and 3 weeks of treatment. […] UniNX, AngII […], and compound 100 […] occurred at the time points indicated.

Row | SMILES | IC50 (TRPC5) [nM] | further results
1 | CC1Cc2c(ncnc2Oc2ccc(F)cc2Cl)CN1c1cn[nH]c(=O)c1Cl (single isomer, unassigned) [Compound 117a] | > 1000 | –
2 | CC(c1ccc(F)cc1C(F)(F)F)c1ncnc2c1CCN(c1cn[nH]c(=O)c1Cl)C2 (single isomer, unassigned) [Compound 126a] | 50 to 500 | –
3 | CC(O)c1nc2c(c(Oc3ccc(F)cc3C(F)(F)F)n1)CCN(c1cn[nH]c(=O)c1Cl)C2 (single isomer, unassigned) [Compound 129, 4-Chloro-5-[4-[4-fluoro-2-(trifluoromethyl)phenoxy]-2-[(1 S)-1-hydroxyethyl]-5H,6H,7H,8H-pyrido[3,4-d]pyrimidin-7-yl]-2,3-dihydropyridazin-3-one] | < 50 | –
4 | O=c1[nH]ncc(N2CCc3c(ncnc3Oc3ccc(F)cc3C(F)(F)F)C2)c1Cl [Compound 100, 4-chloro-5-[4-[4-fluoro-2-(trifluoromethyl)phenoxy]-5H,6H,7H,8H-pyrido[3,4-d]pyrimidin-7-yl]-2,3-dihydropyridazin-3-one] | – | urinary albumin excretion ([1]; 30 mg/kg once daily (QD), at 10 days): Significant reductions; urinary albumin excretion ([1]; 30 mg/kg twice daily (BID), at 7 and 10 days): Significant reductions; urine protein creatinine ratio [2]: efficacious
5 | NC(=O)c1ncn([C@@H]2O[C@H](CO)[C@@H](O)[C@H]2O)c1O [Mizoribine, reference compound] | – | albuminuria ([1]; positive control compound): efficacious in reducing albuminuria

Now from value to molecule, other results behind:

Row | IC50 (TRPC5) [nM] | SMILES | further results
6 | < 50 | CC(c1ccc(F)cc1C(F)(F)F)c1ncnc2c1CCN(c1cn[nH]c(=O)c1Cl)C2 (single isomer, unassigned) [Compound 126, 4-Chloro-5-[4-[(1 S)-1-[4-fluoro-2-(trifluoromethyl)phenyl]ethyl]-5H,6H,7H,8H-pyrido[3,4-d]pyrimidin-7-yl]-2,3-dihydropyridazin-3-one] | –
7 | < 50 | CC(O)c1nc2c(c(Oc3ccc(F)cc3C(F)(F)F)n1)CCN(c1cn[nH]c(=O)c1Cl)C2 (single isomer, unassigned) [Compound 130] | –
8 | < 50 | O=c1[nH]ncc(N2CCc3c(nc([C@@H](O)CO)nc3Oc3ccc(F)cc3C(F)(F)F)C2)c1Cl (single isomer, unassigned) [Compound 135] | –
9 | < 50 | O=c1[nH]ncc(N2CCc3c(nc([C@H](O)CO)nc3Oc3ccc(F)cc3C(F)(F)F)C2)c1Cl (single isomer, unassigned) [Compound 137] | –
